Data as given in ChEMBL document CHEMBL2163314, “Potent aminocyclitol glucocerebrosidase inhibitors are subnanomolar pharmacological chaperones for treating gaucher disease” (J Med Chem, 2012).
Active and inactive are the calls of the source. The calls are words filed in the database; no cut-off is given here.

Experiments:
[1] = molecular target: T1, Beta-galactosidase (Bos taurus) (UniProt Q58D55); assay: Inhibition of bovine liver beta-galactosidase at 100 uM
T1 sequence (whole entry): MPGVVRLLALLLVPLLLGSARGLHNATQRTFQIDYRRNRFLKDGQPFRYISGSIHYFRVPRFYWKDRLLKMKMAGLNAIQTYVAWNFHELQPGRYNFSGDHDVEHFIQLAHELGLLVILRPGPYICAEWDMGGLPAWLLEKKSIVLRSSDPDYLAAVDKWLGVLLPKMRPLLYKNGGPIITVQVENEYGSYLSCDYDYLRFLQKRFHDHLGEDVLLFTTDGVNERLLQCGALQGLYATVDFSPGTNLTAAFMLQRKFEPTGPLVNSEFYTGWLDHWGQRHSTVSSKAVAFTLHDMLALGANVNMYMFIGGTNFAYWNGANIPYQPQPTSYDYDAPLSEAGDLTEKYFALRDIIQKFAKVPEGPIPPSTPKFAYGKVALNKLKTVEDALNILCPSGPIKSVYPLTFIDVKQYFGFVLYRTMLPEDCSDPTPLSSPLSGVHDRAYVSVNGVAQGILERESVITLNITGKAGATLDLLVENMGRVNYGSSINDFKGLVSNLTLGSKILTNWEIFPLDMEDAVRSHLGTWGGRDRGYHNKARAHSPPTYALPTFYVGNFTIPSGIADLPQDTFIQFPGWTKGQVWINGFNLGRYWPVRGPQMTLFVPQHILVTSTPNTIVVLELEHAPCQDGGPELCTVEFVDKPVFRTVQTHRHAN

[2] = molecular target: T2, Lysosomal acid glucosylceramidase (Homo sapiens) (UniProt P04062); conditions: 50 uM
T2 sequence (whole entry): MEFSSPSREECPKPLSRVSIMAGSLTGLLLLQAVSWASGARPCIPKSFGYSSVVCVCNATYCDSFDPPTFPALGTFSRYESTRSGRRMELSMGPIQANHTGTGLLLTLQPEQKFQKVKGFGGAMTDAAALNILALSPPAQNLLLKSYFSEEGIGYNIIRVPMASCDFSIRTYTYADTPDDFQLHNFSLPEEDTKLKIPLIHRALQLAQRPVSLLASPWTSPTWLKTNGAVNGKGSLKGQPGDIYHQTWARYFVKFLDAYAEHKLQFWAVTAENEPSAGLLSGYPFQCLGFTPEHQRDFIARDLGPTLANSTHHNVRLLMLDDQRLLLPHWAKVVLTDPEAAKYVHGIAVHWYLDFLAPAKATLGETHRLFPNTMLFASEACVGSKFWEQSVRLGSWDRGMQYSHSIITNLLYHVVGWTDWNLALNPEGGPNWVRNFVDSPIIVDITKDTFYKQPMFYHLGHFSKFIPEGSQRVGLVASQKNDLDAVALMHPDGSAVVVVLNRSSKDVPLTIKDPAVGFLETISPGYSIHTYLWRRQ

[3] = molecular target: T3, Beta-galactosidase (Homo sapiens) (UniProt P16278); assay: Inhibition of lysosomal beta-galactosidase in human fibroblast at 5 uM after 24 hrs
T3 sequence (whole entry): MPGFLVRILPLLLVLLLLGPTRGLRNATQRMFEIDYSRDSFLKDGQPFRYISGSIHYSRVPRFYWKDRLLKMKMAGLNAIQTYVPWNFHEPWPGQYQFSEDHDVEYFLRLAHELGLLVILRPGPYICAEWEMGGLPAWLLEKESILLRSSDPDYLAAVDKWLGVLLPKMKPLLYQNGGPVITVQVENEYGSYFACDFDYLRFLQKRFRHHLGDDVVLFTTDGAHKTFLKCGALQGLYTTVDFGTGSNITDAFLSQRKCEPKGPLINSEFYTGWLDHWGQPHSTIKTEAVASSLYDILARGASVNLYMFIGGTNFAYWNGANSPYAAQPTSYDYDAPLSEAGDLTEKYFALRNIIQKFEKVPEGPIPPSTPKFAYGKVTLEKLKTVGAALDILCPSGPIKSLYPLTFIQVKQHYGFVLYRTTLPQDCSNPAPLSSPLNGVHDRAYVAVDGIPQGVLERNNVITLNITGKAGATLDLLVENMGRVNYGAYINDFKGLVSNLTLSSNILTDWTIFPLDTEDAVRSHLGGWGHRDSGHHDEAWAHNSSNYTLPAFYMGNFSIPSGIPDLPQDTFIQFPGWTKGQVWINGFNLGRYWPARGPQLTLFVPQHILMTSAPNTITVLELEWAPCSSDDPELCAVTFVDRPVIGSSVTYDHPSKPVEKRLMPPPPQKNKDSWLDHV

[4] = molecular target: T4, Alpha-galactosidase A (Homo sapiens) (UniProt P06280); assay: Inhibition of lysosomal alpha-galactosidase in human fibroblast at 5 uM after 24 hrs
T4 sequence (whole entry): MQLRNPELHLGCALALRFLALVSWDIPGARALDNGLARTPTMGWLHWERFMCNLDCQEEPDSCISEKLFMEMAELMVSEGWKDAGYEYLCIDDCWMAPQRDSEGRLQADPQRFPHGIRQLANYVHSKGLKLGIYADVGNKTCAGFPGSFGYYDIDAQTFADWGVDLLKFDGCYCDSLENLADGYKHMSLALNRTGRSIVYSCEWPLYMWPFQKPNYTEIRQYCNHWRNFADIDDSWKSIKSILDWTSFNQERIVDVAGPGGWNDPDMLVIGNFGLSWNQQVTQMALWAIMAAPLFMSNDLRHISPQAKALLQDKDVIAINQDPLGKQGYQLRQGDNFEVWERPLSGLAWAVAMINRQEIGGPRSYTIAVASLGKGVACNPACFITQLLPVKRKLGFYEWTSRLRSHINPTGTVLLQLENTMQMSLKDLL

[5] = molecular target: T5, Ceramide glucosyltransferase (Mus musculus) (UniProt O88693); assay: Inhibition of GCS activity in mouse tissue homogenate at 250 uM
T5 sequence (whole entry): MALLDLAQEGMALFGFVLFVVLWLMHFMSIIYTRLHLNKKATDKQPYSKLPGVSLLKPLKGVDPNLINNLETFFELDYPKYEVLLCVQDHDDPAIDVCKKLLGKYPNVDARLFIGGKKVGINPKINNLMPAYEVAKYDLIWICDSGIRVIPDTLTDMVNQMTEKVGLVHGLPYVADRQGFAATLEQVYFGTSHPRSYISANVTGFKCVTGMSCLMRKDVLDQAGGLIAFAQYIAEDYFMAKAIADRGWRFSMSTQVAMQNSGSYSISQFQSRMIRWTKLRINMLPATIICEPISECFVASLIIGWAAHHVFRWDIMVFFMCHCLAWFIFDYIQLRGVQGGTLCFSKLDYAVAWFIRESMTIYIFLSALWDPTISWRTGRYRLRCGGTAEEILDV

[6] = molecular target: T5, Ceramide glucosyltransferase (Mus musculus); assay: Inhibition of GCS activity in mouse tissue homogenate at 50 uM

| SMILES | inhibition [1] | inhibition [2] | inhibition [3] | inhibition [4] | inhibition [5] | inhibition [6] |
| --- | --- | --- | --- | --- | --- | --- |
| CCCCCCCCCN[C@@H]1[C@H](O)[C@@H](O)[C@H](O)[C@@H](O)[C@@H]1O | 74% | 23% |  |  |  |  |
| CCCCCCCCCN[C@H]1[C@H](O)[C@@H](O)[C@H](O)[C@@H](O)[C@@H]1OCCCCCCCCC.Cl |  |  | < 16% | < 16% | 56% | inactive |
| CCCCCCCCCN[C@H]1[C@H](O)[C@@H](O)[C@H](O)[C@@H](O)[C@@H]1O |  | 23% |  |  |  |  |
| CCCCCCCCCN[C@H]1[C@H](O)[C@@H](O)[C@H](O)[C@@H](O)[C@H]1OCCCCCCCCC.Cl | 74% |  | inactive | inactive | 56% | inactive |
| CCCCCCCCCN[C@H]1[C@H](O)[C@@H](O)[C@H](O)[C@@H](O)[C@@H]1OC.Cl |  | 23% |  |  |  |  |
| CCCCCCCCCN(CCCCCCCCC)[C@@H]1[C@H](O)[C@H](O)[C@@H](O)[C@H](O)[C@H]1O.Cl |  |  | < 16% | < 16% | 56% | inactive |
| CCCCCCCCCO[C@H]1[C@@H](N)[C@H](O)[C@@H](O)[C@H](O)[C@H]1O.Cl | 74% |  |  |  |  |  |
